From patent US20260285853A1, “COMPOUNDS AND METHODS FOR MODULATING SPLICING” (REMIX THERAPEUTICS INC., priority 2023, published 2026)

Columns and labels:
Assay type in all cases: cell-based
HTT mRNA [1] = test: Splicing RT-qPCR assay (THP), Table 2A; settings: Table 2A, THP; for AC50: HTT alternative junction (AJ) mRNA, read-out: HTT AJ (AC50, increase in alternative junction mRNA); for IC50: HTT canonical junction (CJ) mRNA, read-out: HTT CJ (IC50, decrease in canonical junction mRNA)
MYB mRNA [2] = test: Splicing RT-qPCR assay (THP), Table 2A; settings: Table 2A, THP; for AC50: MYB alternative junction (AJ) mRNA, read-out: MYB AJ (AC50, increase in alternative junction mRNA); for IC50: MYB canonical junction (CJ) mRNA, read-out: MYB CJ (IC50, decrease in canonical junction mRNA)
HTT mRNA [3] = test: Gene panel canonical junction qPCR assay, decrease in CJ mRNA, Table 3; settings: decrease in CJ mRNA levels, canonical junction qPCR, gene panel
How it was run: (§1)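 A673 cells were plated, left to adhere for 24 h, then dosed; K562 cells were plated in 96- or 384-well format and dosed directly. Both were incubated 24 h at 37 °C with an 11-point 3-fold series (top 10 uM final). Canonical junction mRNA was then read by cDNA synthesis and qPCR.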

MYB mRNA [4] = test: as above; settings: decrease in CJ mRNA levels, canonical junction qPCR, gene panel
How it was run: as §1

[5] = system: SH-SY5Y (human neuroblastoma) cells; test: Cell viability, Cell Titer Glo 2.0 assay; settings: read-out: Viability SHSY5Y.3 GI50
How it was run: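 SH-SY5Y neuroblastoma cells are exposed to test compounds for 72 hours at 37 °C and 5% CO2, with final DMSO held at 0.1%. Cell viability is then measured with the CellTiter-Glo 2.0 assay.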

Structure (SMILES) | AC50 (HTT mRNA [1]) [nM] | IC50 (HTT mRNA [1]) [nM] | AC50 (MYB mRNA [2]) [nM] | IC50 (MYB mRNA [2]) [nM] | IC50 (HTT mRNA [3]) [nM] | IC50 (MYB mRNA [4]) [nM] | GI50 [5] [nM]
Cc1cn2cc(NC(=O)c3ccc(NC(=O)C4CCCN4)c4[nH]cnc34)cc(F)c2n1 (stereo not shown) [Compound 613, N-(8-fluoro-2-methyl-imidazo[1,2-a]pyridin-6-yl)-7-(pyrrolidine-2-carbonylamino)-1H-benzimidazole-4-carboxamide] | > 10000 | 1000 to 10000 | 1000 to 10000 | 1000 to 10000 | 1000 to 10000 | 1000 to 10000 | > 10000
Cc1cn2cc(NC(=O)c3ccc(NC(=O)C4CCNC4)c4[nH]cnc34)cc(F)c2n1 (stereo not shown) [Compound 614, N-(8-fluoro-2-methyl-imidazo[1,2-a]pyridin-6-yl)-7-(pyrrolidine-3-carbonylamino)-1H-benzimidazole-4-carboxamide] | > 10000 | 1000 to 10000 | 1000 to 10000 | 1000 to 10000 | 1000 to 10000 | 1000 to 10000 | > 10000
CCNC1CCN(c2ccc(C(=O)Nc3cn4cc(C)nc(C)c4n3)n3nc(C)cc23)CC1 [Compound 615, N-(6,8-dimethylimidazo[1,2-a]-pyrazin-2-y1)-4-[4-(ethylamino)-1-piperidyl]-2-methyl-pyrazolo[1,5-a]-pyridine-7-carboxamide] | 1000 to 10000 | 1000 to 10000 | 1000 to 10000 | 100 to 1000 | 1000 to 10000 | 100 to 1000 | 1000 to 10000
Cc1cn2cc(NC(=O)c3ccc(N4CCC(NC5CC5)CC4)c4cc(CO)nn34)nc2c(C)n1 [Compound 616, 4-[4-(cyclopropylamino)-1-piperidyl]-N-(6,8-dimethylimidazo[1,2-a]pyrazin-2-yl)-2-(hydroxymethyl) pyrazolo[1,5-a]-pyridine-7-carboxamide] | 1000 to 10000 | 1000 to 10000 | 1000 to 10000 | 1000 to 10000 | 1000 to 10000 | 1000 to 10000 | 1000 to 10000
Cc1cn2cc(NC(=O)c3ccc(N4CCC(NC5CC5)CC4)c4cc(CF)nn34)nc2c(C)n1 [Compound 617, 4-[4-(cyclopropylamino)-1-piperidyl]-N-(6,8-dimethylimidazo[1,2-a]pyrazin-2-yl)-2-(fluoromethyl)-pyrazolo[1,5-a]pyridine-7-carboxamide] | > 10000 | > 10000 | 100 to 1000 | 1000 to 10000 | > 10000 | 1000 to 10000 | 1000 to 10000
COc1cc2nn(C)cc2cc1NC(=O)c1ccc(N2CCC(NC3CC3)CC2)n2cc(C)nc12 [Compound 618, 5-[4-(cyclopropylamino)-1-piperidyl]-N-(6-methoxy-2-methyl-indazol-5-yl)-2-methyl-imidazo[1,2-a]-pyridine-8-carboxamide] | 1000 to 10000 | 1000 to 10000 | < 100 | 100 to 1000 | 1000 to 10000 | 100 to 1000 | 1000 to 10000
COc1cc2nn(C)cc2cc1NC(=O)c1ccc(N2CCC(NC3CC3)CC2)c2cc(C)nn12 [Compound 619, 4-[4-(cyclopropylamino)-1-piperidyl]-N-(6-methoxy-2-methyl-indazol-5-y1)-2-methyl-pyrazolo[1,5-a]-pyridine-7-carboxamide] | 1000 to 10000 | 1000 to 10000 | 100 to 1000 | 100 to 1000 | 1000 to 10000 | 100 to 1000 | 1000 to 10000
COCc1cc2c(N3CCC(NC4CC4)CC3)ccc(C(=O)Nc3cc(F)c4nc(C)cn4c3)n2n1 [Compound 620, 4-[4-(cyclopropylamino)-1-piperidyl]-N-(8-fluoro-2-methyl-imidazo[1,2-a]pyridin-6-yl)-2-(methoxymethyl)-pyrazolo[1,5-a]pyridine-7-carboxamide] | 100 to 1000 | 100 to 1000 | 100 to 1000 | < 100 | 100 to 1000 | < 100 | 100 to 1000
COCc1cc2c(N3CCC(NC4CC4)CC3)ccc(C(=O)Nc3cc4cn(C)nc4cc3OC)n2n1 [Compound 621, 4-[4-(cyclopropylamino)-1-piperidyl]-2-(methoxymethyl)-N-(6-methoxy-2-methyl-indazol-5-yl)-pyrazolo[1,5-a]-pyridine-7-carboxamide] | 100 to 1000 | 1000 to 10000 | < 100 | 100 to 1000 | 1000 to 10000 | 100 to 1000 | 100 to 1000
Cc1cn2cc(NC(=O)c3ccc(N4CCC(NC5CC5)CC4)c4cc(CO)nn34)cc(F)c2n1 [Compound 622] | 100 to 1000 | 100 to 1000 | 100 to 1000 | < 100 | 100 to 1000 | < 100 | 100 to 1000
Cc1cn2cc(NC(=O)c3ccc(N4CCC(NC5CC5)CC4)c4cc(CF)nn34)cc(F)c2n1 [Compound 623, 4-[4-(cyclopropylamino)-1-piperidyl]-2-(fluoromethyl)-N-(8-fluoro-2-methyl-imidazo[1,2-a]-pyridin-6-y1)pyrazolo[1,5-a]pyridine-7-carboxamide] | 100 to 1000 | 100 to 1000 | < 100 | < 100 | 100 to 1000 | < 100 | 100 to 1000
COc1cc2nn(C)cc2cc1NC(=O)c1c(F)cc(N2CCC(NC3CC3)CC2)c2cc(C)nn12 [Compound 624, 4-[4-(cyclopropylamino)-1-piperidyl]-6-fluoro-N-(6-methoxy-2-methyl-indazol-5-yl)-2-methyl-pyrazolo[1,5-a]pyridine-7-carboxamide] | > 10000 | > 10000 | > 10000 | > 10000 | > 10000 | > 10000 | > 10000
COc1cc2nn(C)cc2cc1NC(=O)c1ccc(N2CCC(NC3CC3)CC2)c2cc(CF)nn12 [Compound 625, 4-[4-(cyclopropylamino)-1-piperidyl]-2-(fluoromethyl)-N-(6-methoxy-2-methyl-indazol-5-yl)pyrazolo[1,5-a]-pyridine-7-carboxamide] | 100 to 1000 | 100 to 1000 | < 100 | < 100 | 100 to 1000 | < 100 | 100 to 1000
COc1cc2nc(C)cn2cc1NC(=O)c1c(F)cc(N2CCC(NC3CC3)CC2)c2cc(C)nn12 [Compound 626, 4-[4-(cyclopropylamino)-1-piperidyl]-6-fluoro-N-(7-methoxy-2-methylimidazo-[1,2-a]pyridin-6-yl)-2-methylpyrazolo-[1,5-a]pyridine-7-carboxamide] | > 10000 | > 10000 | > 10000 | > 10000 | > 10000 | > 10000 | > 10000
COc1cc2nn(C)cc2cc1NC(=O)c1c(Cl)cc(N2CCC(NC3CC3)CC2)n2cc(C)nc12 [Compound 627, 7-chloro-5-(4-(cyclopropylamino)piperidin-1-yl)-N-(6-methoxy-2-methyl-2H-indazol-5-yl)-2-methylimidazo[1,2-a]pyridine-8-carboxamide 2,2,2-trifluoroacetate] | > 10000 | > 10000 | > 10000 | > 10000 | > 10000 | > 10000 | > 10000
CCNC1CCN(c2ccc(C(=O)Nc3cc4cn(C)nc4cc3OC)c3nc(C)cn23)CC1 [Compound 628, 5-[4-(ethylamino)-1-piperidyl]-N-(6-methoxy-2-methyl-indazol-5-yl)-2-methyl-imidazo[1,2-a]pyridine-8-carboxamide] | 100 to 1000 | 100 to 1000 | < 100 | < 100 | 100 to 1000 | < 100 | 100 to 1000
COCCOCc1cc2c(N3CCC(NC4CC4)CC3)ccc(C(=O)Nc3cc(F)c4nc(C)cn4c3)n2n1 [Compound 629, 4-[4-(cyclopropylamino)-1-piperidyl]-N-(8-fluoro-2-methyl-imidazo[1,2-a]-pyridin-6-y1)-2-(2-methoxyethoxy-methyl)-pyrazolo[1,5-a]pyridine-7-carboxamide] | 1000 to 10000 | 100 to 1000 | < 100 | < 100 | 100 to 1000 | < 100 | 100 to 1000
COc1c(NC(=O)c2ccc(N3CCC(NC4CC4)CC3)c3cc(C)nn23)cn2cc(C)nc(C)c12 [Compound 630, 4-[4-(cyclopropylamino)-1-piperidyl]-N-(8-methoxy-1,3-dimethyl-pyrrolo[1,2-a]pyrazin-7-yl)-2-methyl-pyrazolo[1,5-a]pyridine-7-carboxamide] | 1000 to 10000 | 1000 to 10000 | 1000 to 10000 | 1000 to 10000 | 1000 to 10000 | 1000 to 10000 | 1000 to 10000
COc1c(NC(=O)c2ccc(N3CCC(NC4CC4)CC3)n3cc(C)nc23)cn2cc(C)nc(C)c12 [Compound 631, 5-[4-(cyclopropylamino)-1-piperidyl]-N-(8-methoxy-1,3-dimethyl-pyrrolo[1,2-a]pyrazin-7-yl)-2-methyl-imidazo[1,2-a]pyridine-8-carboxamide] | 1000 to 10000 | 1000 to 10000 | 1000 to 10000 | 1000 to 10000 | 1000 to 10000 | 1000 to 10000 | 1000 to 10000
